Source: patent US20070258986A1, “Targeted Delivery System for Bioactive Agents” (Govt of the US as represented by the secretary,, priority 2003, published 2007)

Assays:
Y289L GalT [1] = target: T1, Y289L GalT (Bos taurus, UniProt P08037, Y289L); assay: Labeling of the O-GlcNAc peptide with ketone analogue 1 by mutant Y289L GalT (LC-MS); assay type: biochemical, bovine; settings: peptide TAPTS(O-GlcNAc)TIAPG 10 μM, analogue 1 1 mM, 6 h at 4° C.
T1 construct: the catalytic domain of GalT has a tyrosine exchanged with another amino acid; made in house
T1 sequence (P08037 130-402 Y289L limits assumed): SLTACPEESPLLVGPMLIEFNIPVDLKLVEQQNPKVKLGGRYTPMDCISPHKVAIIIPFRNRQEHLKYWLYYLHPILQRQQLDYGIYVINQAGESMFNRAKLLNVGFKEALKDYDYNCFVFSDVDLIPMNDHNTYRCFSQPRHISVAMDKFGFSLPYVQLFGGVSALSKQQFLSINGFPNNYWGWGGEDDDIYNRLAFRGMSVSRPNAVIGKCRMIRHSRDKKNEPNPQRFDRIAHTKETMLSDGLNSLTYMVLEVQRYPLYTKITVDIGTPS
Experimental: Labeling of the O-GlcNAc Peptide: The peptide TAPTS(O-GlcNAc)TIAPG (10 μM was dissolved in 25 mM MOPS buffer, pH 6.7 containing 5 mM MnCl2 and 8 μM reference peptide (ThermoFinnigan, San Jose, Calif.). Ketone analogue 1 and mutant Y289L GalT were added to final concentrations of 1 mM and 100 ng/μL, respectively. Prior to enzyme addition, an aliquot of the reaction was removed as an initial time point for LC-MS analysis. Reactions were incubated at 4° C. for 6 h, after which an aliquot of the reaction mixture was removed for product analysis by LC-MS. The remainder of the reaction was diluted 5-fold into PBS (final concentration: 10.1 mM Na2HPO4, 1.76 mM KH2 HPO4, 137 mM NaCl, 2.7 mM KCl, pH 6.7), and N-(aminooxyacetyl)-N′-(D-biotinoyl) hydrazine (Molecular Probes, Eugene, Oreg.) was added to a final concentration of 12 mM. After 8 h at 25° C., the extent of biotin-oxime product was measured by LC-MS. […] Labeling reactions with wild-type GalT were performed identically, with the exception that reactions were incubated at 37° C. for 12 h. […]
For the aminooxy biotin reaction, formation of the oxime product was monitored using an extracted ion chromatogram within the mass range 1319.0-1321.0 m/z and 1633.0-1635.5 m/z, which was generated post-acquisition via the Xcalibur™ software. […]

Y289L GalT [2] = target: T1, Y289L GalT; assay: Labeling of O-GlcNAc glycosylated CREB protein with analogue 1 and Y289L GalT, aminooxy biotin, streptavidin-HRP blot; assay type: biochemical, bovine; settings: recombinant CREB from Sf9 cells, analogue 1 1 mM, 12 h at 4° C., then aminooxy biotin
Experimental: Labeling of CREB protein: Recombinant O-GlcNAc glycosylated CREB was generated by coexpression of CREB with O-GlcNAc glycosyltransferase in Sf9 cells as described previously (Lamarre-Vincent et al., 2003). 500 ng of CREB in 20 mM HEPES pH 7.9, 100 mM KCl, 0.2 mM EDTA, 15% glycerol was added to 50 mM MOPS pH 6.45 containing 5 mM MnCl2 and 0.25 mU/μL alkaline phosphatase (Unverzagt et al., 1990). Analogue 1 and Y289L GalT were then added to final concentrations of 1 mM and 40 ng/μL, respectively. Control reactions without enzyme or analogue 1 were treated identically. Following incubation at 12 h at 4° C., the reactions were diluted 5-fold into PBS containing protease inhibitors (5 μg/mL pepstatin, 5 μg/mL chymostatin, 20/μg/mL leupeptin, 20 μg/mL aprotinin, 20 μg/mL antipain, 0.2 mM PMSF). Aminooxy biotin was added to a final concentration of 2 mM, and the biotinylation reactions were incubated with gentle shaking for 12 h at 37° C. Reactions were aliquoted for analysis and stopped by boiling in SDS-PAGE loading dye. Proteins were resolved by 10% SDS-PAGE, electrophoretically transferred to nitrocellulose, and probed with streptavidin-HRP. […]

CC(=O)C[C@H]1[C@@H](OP(=O)(O)OP(=O)(O)OC[C@H]2O[C@@H](n3ccc(=O)[nH]c3=O)[C@H](O)[C@@H]2O)O[C@H](CO)[C@H](O)[C@@H]1O.N.N [analogue 1, Uridine 5′-diphospho-2-acetonyl-2deoxy-α-D-galactopyranose diammonium salt]
conversion of the peptide to the ketone-labeled product (Y289L GalT [1]): complete conversion
labeling of glycosylated CREB (chemiluminescence) (Y289L GalT [2]; diammonium salt): Strong, selective labeling
labeling of glycosylated CREB (chemiluminescence) (Y289L GalT [2]; listed as 1, diammonium salt): Strong labeling
